From article PMC7059030, “Design, Synthesis, Molecular Modeling Studies and Biological Evaluation of N′-Arylidene-6-(benzyloxy)-4-oxo-1,4-dihydroquinoline-3-carbohydrazide Derivatives as Novel Anti-HCV Agents” (Iranian Journal of Pharmaceutical Research : IJPR, 2019)
Where two headings read alike, the source gives them in different places.

Key:
[1] = tested on: HCV (JFH-1 strain) in Huh7.5 cells; assay: Cell-based HCV replicon assay (RT-qPCR of HCV RNA in infected Huh7.5 cells); design: species or system hepatitis C virus; settings: for EC50: Huh7.5 cells infected with HCV (JFH-1), three days, HCV RNA by quantitative RT-PCR; for SI = CC50/EC50: selectivity index, CC50 (Huh-7.5, XTT) / EC50 (HCV replicon)
Method: The plasmid encoding the full genome of […] (JFH-1) strain (kindly provided by Wakita T) was used for in-vitro transcription to produce approximately high titer stocks of cell culture-produced virus (HCVcc) as previously described ([37]).
Huh7.5 cells were seeded into 48-well plates at a density of 3×10^5 cells per well with DMEM containing 10% FBS. After 24 h, huh7.5 cells were infected with HCV viral stock ([…]) for 3 h, at which point the infection was stopped and each well was washed three times by sterile PBS to removed non-penetrated virions and then the fresh medium was added to each well. Subsequently, the infected cells were treated with newly synthesized compounds at different concentrations and the sofosbuvir (Sigma-Aldrich, USA) as a positive control. After three days inoculation, the supernatant medium was collected and the viral RNA was extracted using viral QIAamp viral RNA mini kit (Qiagen, Düsseldorf, Germany), according to the manufacturer protocol. Then, the amount of HCV replicon RNA was determined using Quantitative RT-PCR assay by hepatitis C virus viral load kit (Gene Proof, Czech Republic, with CE, IVD) according to the manufacturer’s instruction.
The 50% effective concentration (EC50) was determined as the ratio of the normalized HCV RNA amount in treated samples relative to the controls (the samples without compound treatment) using GraphPad Prism5.0 software (GraphPad Software, San Diego, CA).
Target compounds 13-25 were evaluated in a cell-based viral replication surrogate assay known as the replicon system ([39]). We hypothesized that our quinolone analogues will inhibit NS5B, likely via binding to the active site. To test this hypothesis, FDA-approved active site binding NI, sofosbuvir, was used as a control compound. In parallel, compounds were also evaluated for their cytotoxic effects in the same cell line to ensure that the activity is completely devoid of cytotoxicity effects. The biological results are expressed as EC50, CC50 and SI (selectivity index, given by the CC50/EC50 ratio).

XTT cytotoxicity assay = assay type: cell-based; settings: human, Huh-7.5 cells
Method: The cytotoxicity of compounds to Huh-7.5 cells was measured in parallel with the HCV replication assay based on the cleavage of the yellow tetrazolium salt XTT® (sodium 3-[1 (phenylaminocarbonyl)-3, 4-tetrazolium]-bis(4-methoxy-6-nitro)benzene sulfonic acid) to generate an orange formazan dye by metabolic function of alive and active cells. Cells were treated with various concentrations ([…]) of compounds and incubated for 72 hours.
The cell cytotoxicity was determined using XTT proliferation assay kit (Sigma-Aldrich) following the manufacturer’s instructions. The 50% cytotoxic concentration (CC50) was defined as the concentration of compound that reduced cell proliferation by 50%.

[2] = Hepatitis C virus, Huh7.5, 72 h
[3] = Hepatitis C virus, Huh7.5, 72 h, read-out: EC50

| SMILES | EC50 [1, 2] [µM] | CC50 at 72 h (XTT cytotoxicity assay) [µM] | melting point | SI = CC50/EC50 [1] | EC50 [1, 3] [µM] | EC50 [1] [µM] |
| --- | --- | --- | --- | --- | --- | --- |
| Cc1ccc(C=NNC(=O)c2c[nH]c3ccc(OCc4ccccc4)cc3c2=O)cc1 [Compound 17, 6-(Benzyloxy)-N′-(4-methylbenzylidene)-4-oxo-1,4-dihydroquinoline-3-carbohydrazide] | > 200 | > 200 | 330 °C (dec.) |  |  |  |
| COc1ccc(C=NNC(=O)c2c[nH]c3ccc(OCc4ccccc4)cc3c2=O)cc1 [Compound 18, 6-(Benzyloxy)-N′-(4-methoxybenzylidene)-4-oxo-1,4-dihydroquinoline-3-carbohydrazide] |  | > 200 | 154 °C (dec.) | > 2 |  |  |
| Cc1ccccc1C=NNC(=O)c1c[nH]c2ccc(OCc3ccccc3)cc2c1=O [Compound 23, 6-(Benzyloxy)-N′-(2-methylbenzylidene)-4-oxo-1,4-dihydroquinoline-3-carbohydrazide] |  | 160 | 290 °C (dec.) | 2.2 | 70 |  |
| CC(C)OC(=O)[C@H](C)N[P@](=O)(OC[C@H]1O[C@@H](n2ccc(=O)[nH]c2=O)[C@](C)(F)[C@@H]1O)Oc1ccccc1 [Sofosbuvir, sofosbuvir, reference compound] |  | > 500 |  | > 100 | 5 |  |
| COc1cccc(C=NNC(=O)c2c[nH]c3ccc(OCc4ccccc4)cc3c2=O)c1 [Compound 24, 6-(Benzyloxy)-N′-(3-methoxybenzylidene)-4-oxo-1,4-dihydroquinoline-3-carbohydrazide] |  | > 200 | 280 °C (dec.) | >1.8 | 120 |  |
| Cc1cccc(C=NNC(=O)c2c[nH]c3ccc(OCc4ccccc4)cc3c2=O)c1 [Compound 22, 6-(Benzyloxy)-N′-(3-methylbenzylidene)-4-oxo-1,4-dihydroquinoline-3-carbohydrazide] |  | 100 | 310 °C (dec.) | 2.2 | 45 |  |
| O=C(NN=Cc1ccc(F)cc1)c1c[nH]c2ccc(OCc3ccccc3)cc2c1=O [Compound 15, 6-(Benzyloxy)-N′-(4-fluorobenzylidene)-4-oxo-1,4-dihydroquinoline-3-carbohydrazide] |  | > 200 | 305 °C (dec.) |  | > 200 |  |
| COc1ccccc1C=NNC(=O)c1c[nH]c2ccc(OCc3ccccc3)cc2c1=O [Compound 25, 6-(Benzyloxy)-N′-(2-methoxybenzylidene)-4-oxo-1,4-dihydroquinoline-3-carbohydrazide] |  | > 200 | 299 °C (dec.) |  | > 200 |  |
| O=C(NN=Cc1cccc(F)c1)c1c[nH]c2ccc(OCc3ccccc3)cc2c1=O [Compound 19, 6-(Benzyloxy)-N′-(3-fluorobenzylidene)-4-oxo-1,4-dihydroquinoline-3-carbohydrazide] |  | > 200 | 305 °C (dec.) |  | > 200 |  |
| O=C(NN=Cc1ccc(Cl)cc1)c1c[nH]c2ccc(OCc3ccccc3)cc2c1=O [Compound 16, 6-(Benzyloxy)-N′-(4-chlorobenzylidene)-4-oxo-1,4-dihydroquinoline-3-carbohydrazide] |  | > 200 | 329 °C (dec.) |  | > 200 |  |
| CSc1ccc(C=NNC(=O)c2c[nH]c3ccc(OCc4ccccc4)cc3c2=O)cc1 [Compound 14, 6-(Benzyloxy)-N′-(4-(methylthio)benzylidene)-4-oxo-1,4-dihydroquinoline-3-carbohydrazide] | > 200 | > 200 | 160 °C (dec.) |  |  |  |
| O=C(NN=Cc1ccccc1)c1c[nH]c2ccc(OCc3ccccc3)cc2c1=O [Compound 13, N′-Benzylidene-6-(benzyloxy)-4-oxo-1,4-dihydroquinoline-3-carbohydrazide] |  | > 200 | 130 °C (dec.) |  | > 200 |  |
| O=C(NN=Cc1cccc(Cl)c1)c1c[nH]c2ccc(OCc3ccccc3)cc2c1=O [Compound 21, 6-(Benzyloxy)-N′-(3-chlorobenzylidene)-4-oxo-1,4-dihydroquinoline-3-carbohydrazide] |  | 90 | 291 °C (dec.) | 2.5 | 35 |  |
| O=C(NN=Cc1ccccc1F)c1c[nH]c2ccc(OCc3ccccc3)cc2c1=O [Compound 20, 6-(Benzyloxy)-N′-(2-fluorobenzylidene)-4-oxo-1,4-dihydroquinoline-3-carbohydrazide] | 70 | > 200 | 324 °C (dec.) | > 2 |  | 120 |
